Where a name gives a salt, the structure may show the parent alone.
Experiments:
[1] = Isothermal sorption (dynamic vapor sorption), weight change with relative humidity; format: physicochemical; conditions: for hygroscopicity compared with amorphous ACP-196: 30 to 80% RH; for weight change (isothermal sorption plot): between 30% and 80% relative humidity
Experimental: Dynamic vapor sorption data and isothermal sorption data were collected on TA Instruments Q5000 TGA. Method: A sample of 1 to 10 mg was placed in a platinum pan; the weight change of the sample during the change in relative humidity from 0% to 80% to 0% was measured.

Solubility test in water = format: physicochemical; conditions: for solubility compared with amorphous ACP-196 (ACP-196 of Preparation Example 1): in water, Comparative Example 1; for solubility / Solubility test results: water, 20 mg sample, 25° C. water bath, water added until completely dissolved (not more than 200 mL); for solubility: 25 °C, thermodynamic from solid
Experimental: Solubility test: took 20 mg ACP-196 of Preparation Example 1, 20 mg ACP-196 malate Form 1 of the invention, 20 mg ACP-196 hemifumarate Form 1 of the invention, 20 mg ACP-196 maleate Form 1 of the invention, 20 mg ACP-196 phosphate Form 1 of the invention and 20 mg ACP-196 sulfate Form 1 of the invention, then placed in the beaker respectively added 1.0 mL water, stirred for 1 to 2 minutes under the condition of 25° C. water bath, observed and if not totally dissolved, added water (not more than 200 mL in total) until it's completely dissolved.

Structure (SMILES) | hygroscopicity compared with amorphous ACP-196 [1] | solubility compared with amorphous ACP-196 (ACP-196 of Preparation Example 1) (Solubility test in water) | solubility (Solubility test in water) [µg/mL] | weight change (isothermal sorption plot) [1] [%] | weight change (isothermal sorption plot) ([1]; listed as amorphous ACP-196) [%] | Solubility test results (Solubility test in water)
CC#CC(=O)N1CCC[C@H]1c1nc(-c2ccc(C(=O)Nc3ccccn3)cc2)c2c(N)nccn12.O=C(O)/C=C\C(=O)O [ACP-196 maleate Form 1] | less hygroscopic | higher solubility | 1330 | – | – | –
CC#CC(=O)N1CCC[C@H]1c1nc(-c2ccc(C(=O)Nc3ccccn3)cc2)c2c(N)nccn12 [ACP-196 phosphate Form 1] | less hygroscopic | higher solubility | – | – | – | –
CC#CC(=O)N1CCC[C@H]1c1nc(-c2ccc(C(=O)Nc3ccccn3)cc2)c2c(N)nccn12 [ACP-196 sulfate Form 1] | – | higher solubility | – | – | – | –
CC#CC(=O)N1CCC[C@H]1c1nc(-c2ccc(C(=O)Nc3ccccn3)cc2)c2c(N)nccn12 [ACP-196] | – | – | – | 5.5 | 5.5 | Less than 0.1 mg/mL
CC#CC(=O)N1CCC[C@H]1c1nc(-c2ccc(C(=O)Nc3ccccn3)cc2)c2c(N)nccn12 [ACP-196 malate Form 1] | – | higher solubility | – | – | – | 1430 µg/mL
CC#CC(=O)N1CCC[C@H]1c1nc(-c2ccc(C(=O)Nc3ccccn3)cc2)c2c(N)nccn12.O=C(O)/C=C/C(=O)O [ACP-196 hemifumarate Form 1] | less hygroscopic | higher solubility | 910 | – | – | –
